Consider one molecule from US20240050395A1 (priority 2020, published 2024).

In the assay the test system is SU-DHL-1 lymphoma cells. Conditions: mouse, in vivo.

For the molecule `O=P1(N(CCCl)CCCl)NCCCO1` (stereo not drawn) [cyclophosphamide], the “animal weight relative to the average weight on day 0” value was 104.7%±1.6%, the mean tumor volume is on record as 367±79 mm^3 and the “tumor volume inhibition rate TGITV” value is −93%.
